From patent US6248575A, “Nucleic acids encoding polypeptides having L-amino acid oxidase activity” (Novozymes Biotech, Inc., priority 1999, dated 2001)

Legend:
[1] = target: T1, Trichoderma harzianum CBS 223.93 L-amino acid oxidase (Trichoderma harzianum, UniProt A0A2T4A4V3); assay: Substrate specificity: specific activity and Km with various L-amino acids as substrates; type: biochemical; conditions: for Specific Activity / activity of the L-amino acid oxidase towards the substrate: phosphate buffer pH 8.5, room temperature; for Specific Activity: 20 minutes; for ranking of Km values among substrates: comparison of the substrates of Table 1; for Km: Lineweaver-Burk plots (1/v versus 1/s)
T1 sequence (A0A2T4A4V3 with tags, fused parts or gaps V19I/P71L/S84P/G163K/E317K/D352E/Y353H/V383A/D435A/DEL437-437/D438T/D462E/L570R/R580K/V618I): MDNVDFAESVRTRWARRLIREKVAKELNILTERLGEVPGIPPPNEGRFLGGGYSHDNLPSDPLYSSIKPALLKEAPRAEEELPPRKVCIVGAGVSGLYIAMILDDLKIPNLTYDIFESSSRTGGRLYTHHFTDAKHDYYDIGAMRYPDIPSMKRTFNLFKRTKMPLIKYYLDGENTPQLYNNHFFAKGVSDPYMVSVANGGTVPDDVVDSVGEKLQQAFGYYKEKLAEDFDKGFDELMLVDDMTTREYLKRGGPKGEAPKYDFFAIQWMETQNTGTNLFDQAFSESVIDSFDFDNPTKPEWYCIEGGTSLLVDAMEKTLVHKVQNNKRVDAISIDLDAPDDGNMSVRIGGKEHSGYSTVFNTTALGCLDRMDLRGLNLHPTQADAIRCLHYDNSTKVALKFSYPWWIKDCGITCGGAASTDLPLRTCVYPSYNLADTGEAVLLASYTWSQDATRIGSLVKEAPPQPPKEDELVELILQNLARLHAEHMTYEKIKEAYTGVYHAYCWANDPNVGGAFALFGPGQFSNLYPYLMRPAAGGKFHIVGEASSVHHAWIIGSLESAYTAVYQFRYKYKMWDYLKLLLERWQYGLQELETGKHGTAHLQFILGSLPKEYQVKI
Description: (§1) In the following characterization experiments, detection of H2 O2 was carried out using a Coprinus cinereus peroxidase (CiP), obtained according to WO 92/16634, at a level of 4.5 PODU/ml, and 0.4 mM ABTS in phosphate buffer at pH 7.0. The hydrogen peroxide concentrations were determined relative to a freshly prepared hydrogen peroxide standard solution.
For determination of substrate specificity, the activity of the L-amino acid oxidase was determined with various L-amino acids as substrates. The L-amino acid oxidase was incubated with the substrate in phosphate buffer at pH 8.5 and room temperature for 20 minutes. Generated hydrogen peroxide was detected using ABTS and CiP as described above. The specific activity was determined as described in Example 2 above.
Km values for the various substrates were determined by plotting values of 1/v versus 1/s (Lineweaver-Burk plots).

[2] = Specific activity of the purified L-amino acid oxidase; type: biochemical, Trichoderma harzianum; conditions: 50 mM phosphate buffer pH 8.5, 20° C., 1 mM L-arginine as substrate
Description: For purposes of the present invention, L-amino acid oxidase activity is determined according to the procedure described in WO 94/25574 where the hydrogen peroxide produced during the […] of L-arginine is measured by coupling the reaction to a peroxidase in the presence of 2,2'-azinobis(3-ethylbenzothiazoline-6sulfonate) (ABTS) which produces a greenish-blue color at 418 nm. One unit of L-amino acid oxidase activity is defined as 1.0 μmole of hydrogen peroxide produced per minute at 20° C. in 50 mM phosphate buffer at pH 8.5 with 1 mM L-arginine as substrate.
The specific activity of the purified L-amino acid oxidase was 16 U/mg determined in a 50 mM phosphate buffer at pH 8.5, 20° C. with 1 mM L-arginine as substrate. One unit of enzyme will form 1 μmole of hydrogen peroxide per minute. The amount of protein was quantified assuming that a solution of the L-amino acid oxidase having an optical density of 1 determined at 280 nm contains 1 mg of protein/ml. The L-amino acid oxidase yield was approximately 50 mg of pure protein per liter of culture medium.

[3] = pH activity profile / pH optimum of the L-amino acid oxidase; type: biochemical, Trichoderma harzianum; conditions: 20 minutes, 1 mM L-arginine, 100 mM phosphate buffer; FIG. 1
Description: as §1
(§2) For determination of the pH optimum, the assay was carried out in two steps. In the first step, the L-amino acid oxidase was incubated for 20 minutes with 1 mM of L-arginine in 100 mM of phosphate buffer at various pH values. In the second step, the generated hydrogen peroxide was detected as described above.

[4] = pH stability of the L-amino acid oxidase (residual activity); type: physicochemical, Trichoderma harzianum; conditions: 1 hour at 40° C., 50 mM phosphate buffer, FIG. 2
Description: as §1, §2
For determination of pH stability, the L-amino acid oxidase was incubated at various pH values for 1 hour at 40° C. in 50 mM of phosphate buffer. After dilution, residual activity was measured using the two-step procedure described above.

[5] = Temperature stability of the L-amino acid oxidase (residual activity); type: physicochemical, Trichoderma harzianum; conditions: phosphate buffer pH 8.5, 1 hour, FIG. 3
Description: as §1, §2
For determination of temperature stability, the L-amino acid oxidase was incubated in phosphate buffer at pH 8.5 for 1 hour at various temperatures. After dilution, residual activity was measured using the two-step procedure described above.

Question: What does the source list for `N=C(N)NCCC[C@H](N)C(=O)O` [L-arginine]?
Answer: Specific Activity ([1]; Substrate Conc. 1 mM): 16 U/mg; Specific Activity ([1]; Substrate Conc. 10 mM): 30 U/mg; ranking of Km values among substrates [1]: lowest Km values; preferred substrate ([1]; from the experiments of Table 1): preferred substrate; activity of the L-amino acid oxidase towards the substrate [1]: showed activity

Question: Which “Specific Activity” value ([1]; Substrate Conc. 80 mM) does the source give for `CC(C)C[C@H](N)C(=O)O` [L-leucine] here?
Answer: 16 U/mg

Question: What about the “activity of the L-amino acid oxidase towards the substrate” value [1] of the same molecule?
Answer: showed activity

Question: For `NC(=O)C[C@H](N)C(=O)O` [L-asparagine], which “Specific Activity” value ([1]; Substrate Conc. 80 mM) is on record?
Answer: 7 U/mg

Question: What about the “activity of the L-amino acid oxidase towards the substrate” value [1] of the same molecule?
Answer: showed activity

Question: For `N[C@@H](Cc1ccccc1)C(=O)O` [L-phenylalamine], which “Specific Activity” value ([1]; Substrate Conc. 80 mM) is on record?
Answer: 25 U/mg

Question: And the “activity of the L-amino acid oxidase towards the substrate” value [1]?
Answer: showed activity

Question: Which results are given for `NCCCC[C@H](N)C(=O)O` [L-lysine]?
Answer: Km [1]: 0.2 mM; Specific Activity ([1]; Substrate Conc. 1 mM): 7 U/mg; ranking of Km values among substrates [1]: lowest Km values; activity of the L-amino acid oxidase towards the substrate [1]: showed activity

Question: Which Km [1] does the source give for `CSCC[C@H](N)C(=O)O` [L-methionine] here?
Answer: 15 mM

Question: And the “Specific Activity” value ([1]; Substrate Conc. 80 mM)?
Answer: 8 U/mg

Question: And the “activity of the L-amino acid oxidase towards the substrate” value [1]?
Answer: showed activity

B1: L-amino acid oxidase: purified L-amino acid oxidase from Trichoderma harzianum CBS 223.93; deduced protein of 617 amino acids (SEQ ID NO. 2) (protein)
chain: MDNVDFAESVRTRWARRLIREKVAKELNILTERLGEVPGIPPPNEGRFLGGGYSHDNLPSDPLYSSIKPALLKEAPRAEEELPPRKVCIVGAGVSGLYIAMILDDLKIPNLTYDIFESSSRTGGRLYTHHFTDAKHDYYDIGAMRYPDIPSMKRTFNLFKRTKMPLIKYYLDGENTPQLYNNHFFAKGVSDPYMVSVANGGTVPDDVVDSVGEKLQQAFGYYKEKLAEDFDKGFDELMLVDDMTTREYLKRGGPKGEAPKYDFFAIQWMETQNTGTNLFDQAFSESVIDSFDFDNPTKPEWYCIEGGTSLLVDAMEKTLVHKVQNNKRVDAISIDLDAPDDGNMSVRIGGKEHSGYSTVFNTTALGCLDRMDLRGLNLHPTQADAIRCLHYDNSTKVALKFSYPWWIKDCGITCGGAASTDLPLRTCVYPSYNLADTGEAVLLASYTWSQDATRIGSLVKEAPPQPPKEDELVELILQNLARLHAEHMTYEKIKEAYTGVYHAYCWANDPNVGGAFALFGPGQFSNLYPYLMRPAAGGKFHIVGEASSVHHAWIIGSLESAYTAVYQFRYKYKMWDYLKLLLERWQYGLQELETGKHGTAHLQFILGSLPKEYQVKI
Question: For B1, which “specific activity of the purified L-amino acid oxidase” value [2] is on record?
Answer: 16 U/mg

Question: What about the “pH interval in which activity is shown” value [3] of the same molecule?
Answer: from pH below 7 to a pH of approximately 12

Question: What about the pH optimum [3] of the same molecule?
Answer: ~9 pH

Question: What about the “pH stability relative to initial activity” value ([4]; pH 10) of the same molecule?
Answer: more than 70%

Question: What about the “pH stability relative to initial activity” value ([4]; range pH 7-9.5) of the same molecule?
Answer: more than 80%

Question: And the “temperature range in which the enzyme is stable” value [5]?
Answer: from below 22 °C to above 60 °C

Question: What about the “temperature stability relative to initial activity” value ([5]; range 25° C. to 60° C.) of the same molecule?
Answer: more than 80%
